This note sets out measurements from patent publication US8388931B2, “99m Tc-labeled triphenylphosphonium derivative contrasting agents and molecular probes for early detection and imaging of breast tumors” (priority 2008, dated 2013).

A short description of series [1]: Comparative study: myocardial and hepatic uptake of 99mTc-MIBI versus 99mTc-Mito10-MAG3. Particulars: rat, in vivo. Type of series: in vivo, rats. The procedure: (§1) ^99mTc-MIBI of clinical formulation was purchased from Bristol Myers Squibb. […] Dynamic images were acquired in identical fashion following 99mTc-MIBI injection.
In a comparative study, the myocardial uptake of ^99mTc-MIBI peaked at 2.70±0.4% ID/g within minutes after injection, and remained above 2.41±0.3% ID/g for at least 90 min. Comparatively, the myocardial uptake level of ^99mTc-Mito10-MAG 3 is 10, 40, and 120 fold lower than the uptake level of ^99mTc-MIBI at 3, 10 and 30 min after injection. The hepatic uptake of ^99mTc-MIBI was at 0.37±0.14% ID/g at 30 min after injection.

In series [2] the test system is DMBA-induced breast carcinoma. The series is described as follows: In vivo gamma camera imaging of DMBA-induced breast carcinoma in rats. The arrangement: species or system rats (female Sprague Dawley). Particulars: longitudinal experiment, at the time of detection. The procedure:
The animal protocol was approved by institutional IACUC review and followed NIH guidelines. The rat model of DMBA-induced breast carcinoma was used.
As an initial feasibility study, rats were induced with 65 mg/kg DMBA dissolved in sesame oil via a single oral gavage to the stomach. […] Static images were acquired on a GE XRT gamma camera using a high-resolution parallel-hole collimator, 512×512 matrix size, 22.5×22.5 cm field of view, 140±15 keV energy window, 100 k counts. Unexpectedly, apart from the established palpable carcinomas, additional small (millimeter size) tumors were discovered by this imaging technique in the same animals. This finding promoted a longitudinal study to investigate the early detection of neoplastic growth using ^99mTc-Mito10-MAG3.
Six 48-day-old female rats were injected with 65 mg/kg DMBA. At each week after DMBA induction, the rats were imaged using the following protocol. Each rat was anesthetized with 1.6% isoflurane in room air supplemented with oxygen. […] Dynamic images were continuously acquired at one frame per min for 90 min using the imaging parameters set forth hereinabove. The weekly imaging regiment was continued for all six rats until palpable tumors became detectable, which typically takes place between seven to nine weeks after the administration of DMBA. Due to the relatively short physical half-life of ^99mTc (6 hr), no residual signal, therefore, no cross-contamination is detectable from the previous injection the week before.
as §1
The female Sprague Dawley rats have six pairs of mammary glands, among which glands a and b are away from the hepatic/gastrointestinal region. (FIG. 9, Panel A). Since the typical biodistribution of a lipophilic radiopharmaceutical in the abdominal region precludes reliable imaging of breast tissues below the diaphragm, mammary glands shown in Panels C, D, E and F were excluded from the data analysis. This exclusion also was based on the fact that such spatial distribution of mammary glands is irrelevant to that of the human anatomy.
Imaging data analysis was carried out using an inbuilt software, by carefully drawing a region of interest (ROI) on the tumor site to determine the radioactivity counts in the ROI. […] Radioactivity counts were determined in each ROI. Tumor-to-normal and tumor-to-muscle ratios were calculated as the count ratio between the two ROIs.
The rats were sacrificed by CO2 asphyxiation and the number and location of the mammary tumors were recorded at necropsy. The tumors were dissected, with the diameter and weight measured and documented. […]

In series [1], `[99Tc].[C-]#[N+]CC(C)(C)OC.[C-]#[N+]CC(C)(C)OC.[C-]#[N+]CC(C)(C)OC.[C-]#[N+]CC(C)(C)OC.[C-]#[N+]CC(C)(C)OC.[C-]#[N+]CC(C)(C)OC` [^99mTc-MIBI, ^99mTc-methoxyisobutylisonitrile, reference compound] returned a peak myocardial uptake of 2.70±0.4 % ID/g. Also, the tumor-to-normal ratio in series [2] (ROI count ratio tumor vs contralateral normal mammary gland) is recorded as 2.04±0.49. Further, in series [2] (ROI count ratio tumor vs thigh muscle), the tumor-to-muscle ratio is 5.10±0.31.
